In assay [1] the test system is B7-2/CD28. The format is cell-based, human.
For assay [2], the system named is CD28/B7-2 (cell-surface B7-2). The format is cell-based, human.

“And” between values parts separate entries of the source, which are not always exact repeats. Equal entries are not always repeated.

In the case of ASMDYPVL [p2TAsc], in assay [1], the “Per cent doubly labeled cells (B7-2/CD28)” value was 8.4% and 9.0% and 8.6%; the “attenuation of intercellular B7-2/CD28 engagement (in words)” value was “fails to attenuate intercellular B7-2/CD28 engagement”. Besides, in assay [2], the “inhibition of binding of soluble CD28 to cell-surface B7-2” value is given as “abrogated the ability of p2TA to inhibit binding of CD28 to cell-surface B7-2”.

These data come from paper PMC10308680 (Journal of Biomedical Science, 2023).
